Data set [1] deals with orthotopic prostate cancer PC-3 cells. The data set is described as follows: Orthotopic PC-3 prostate cancer model, TH-302 with Taxol. It is filed as in vivo, mice. The note with it: single agents: Taxol 12 mg/kg; TH-302 30 or 50 mg/kg. The method, then:
TH-302 was tested as monotherapy and in combination with Taxol (paclitaxel) in animals bearing highly invasive and metastatic orthotopic prostate cancer PC-3 cells. Animals were randomized into 6 groups of 8 mice each and then treated either with vehicle; Taxol (12 mg/kg, IV, twice a week for 4 consecutive weeks); TH-302 (30 or 50 mg/kg, IP, once a day for 5 days a week for 2 consecutive weeks); or Taxol in combination with TH-302 (using the same single agent regimens).

A further data set concerns H460 NSCLC cells. The data set is described as follows: H460 ectopic xenograft, TH-302/pemetrexed dosing schedules. It is filed as in vivo, nude mice. To be noted: single agent, TH-302 100 mg/kg ip Q7Dx2 or PMX 150 mg/kg ip Q7Dx2. Here is the method: Anti-tumor activity was evaluated by tumor growth delay (TGD) and tumor growth inhibition (TGI). Body weight change, gross and microscopic assessment of tissue changes, and hematologic assays served for toxicity assessment. Testing in these models was conducted generally as follows. 1×10^6 (H460 human non-small cell lung cancer or HT1080 human fibrosarcoma cells) or 3×10^6 (PC-3 human prostate cancer cells) were implanted in the subcutaneous space of the right flank to obtain ectopic xenograft models. Randomization and dosing was initiated when tumors reached a certain size (100-150 mm^3). API grade of TH-302 was used in all experiments while docetaxel, gemcitabine, cisplatin, pemetrexed, and doxorubicin were purchased from commercial sources.
The H460 cells were prepared in 30% Matrigel and 70%. RPMI1640. Mice were anesthetized by isoflurane and were implanted subcutaneously with 1×10^6 cells (in 200 μl) at the flank position. We selected 110 mice bearing similar size tumors (˜100 mm^3) for the study. Mice bearing similar tumor size were randomly assigned into different groups. Treatment started on day 1 (7 days after tumor implantation) except as noted. TH-302 was administered intraperitoneally (IP) at 150 mg/kg, and docetaxel was administered intravenously (IV) at 10 mg/kg. Animals were observed daily and tumor measurements and body weights recorded twice weekly.
In a study conducted substantially as described above except the cells implanted were H460 NSCLC cells and 1×10^6 cells were implanted and mice were randomized into separate groups when their tumors reached ˜100 mm^3 and the chemotherapeutic employed was pemetrexed at a dose of 150 mg/kg given once a week (Q7D) for two weeks IP and the TH-302 was given at 100 mg/kg given once a week (Q7D) for two weeks IP. […]

Another data set has as its system metastatic melanoma. Put plainly: TH-302 monotherapy in patients with metastatic melanoma. It is filed as in vivo, human. Here is the method: As noted, TH-302 has shown benefit in patients with metastatic melanoma. The historical response rate in first-line metastatic melanoma is about 10%, so the results of treatment with TH-302 are quite remarkable. Eleven subjects with metastatic melanoma have been treated with TH-302 monotherapy at initial doses of 575 mg/m^2 to 670 mg/m^2 as part of a 3 consecutive week dosing regimen repeated every 4 weeks. RECIST tumor assessments have been performed for eight subjects. […] Four of the eight subjects continued on-study for additional dosing cycles. Two of the three subjects with a partial response continued on-study through at least Cycle 3 and Cycle 7. The other subject discontinued with clinical deterioration associated with neurological decline from brain metastases.
A patient suffering from a primary melanoma (a skin cancer) that had metastasized to liver and lung was treated as follows. TH-302 was administered to the patient at an amount of 670 mg/m^2 using a 4 week (28 day) dosing cycle: TH-302 was administered once every week for 3 weeks, on days 1, 8, and 15, followed by a week of no TH-302 administration. The patient was administered 2 cycles of TH-302 and assessed by a CT scan.
Enrollment in the study was expanded at the MTD in patients with metastatic melanoma. TH-302 was administered intravenously over 30-60 minutes on Days 1, 8 and 15 of a 28-day cycle. Eligible patients had ECOG≦1, at least one target lesion by RECIST, and acceptable hematologic, liver, and renal function. Patients with symptomatic brain metastases were excluded unless previously treated and well controlled for at least 3 months. Nine patients with metastatic melanoma have been treated in the study. The median age was 70 (range 23-78) with 5 females and 4 males and ECOG 0/1 in 4/5 patients. […] Metastatic sites included liver in 7 patients and lung in 6 patients. All patients had received at least one prior systemic chemotherapeutic regimen. Two serious adverse events, seizures and ascites, were reported; neither was considered related to study drug. Skin adverse events were reported in 8 patients and mucosal adverse events were reported in 4 patients including one grade 3 event. Myelosuppression was not significant, with one event of grade 3/4 neutropenia and anemia and no events of grade 3/4 thrombocytopenia. Eight patients have had RECIST tumor assessments.

Another data set has as its system H460 NSCLC. The data set is described as follows: H460 ectopic lung cancer model, TH-302 with pemetrexed. The note with it: PMX 150 mg/kg 1/wkx2wks IP; TH-302 50 mg/kg 5/wkx2wks IP; alone or combined. Type of data set: in vivo, nude mice. Here is the method: Anti-tumor activity was evaluated by tumor growth inhibition (TGI) and tumor growth delay (TGD). Body weight change, gross and microscopic assessment of tissue changes, and hematologic assays served for toxicity assessment.
Testing in these models was conducted generally as follows. 1×10^6 H460 human non-small cell lung cancer or HT1080 human fibrosarcoma cells were implanted in the subcutaneous space of the right flank to obtain ectopic xenograft models. For the orthotopic pancreatic model, red-fluorescent protein (RFP) expressing MIA PaCa2 tumors were surgically implanted on the surface of the pancreas. The prostate metastatic model was created by the intraventricular injection of 3×10^6 luciferase-expressing PC-3 cells. […] API grade of TH-302 was used in all experiments while docetaxel, gemcitabine, doxorubicin and pemetrexed were purchased from commercial sources.

Setting [2] is: 575-670 mg/m^2, weekly x3 every 4 weeks, eight subjects assessed.
[3] abbreviates: expansion at MTD, 8 patients assessed.
Setting [4] is: one patient, 670 mg/m^2, 2 cycles, CT scan.

One compound from patent US8946275B2, “Treatment of cancer using hypoxia activated prodrugs” (Threshold Pharmaceuticals, Inc., priority 2008, dated 2015) can be followed below.

A word on the T/C: it is the ratio of treated to control. Take `Cn1c(COP(=O)(NCCBr)NCCBr)cnc1[N+](=O)[O-]` [TH-302, (2-bromoethyl)({[(2-bromoethyl)amino][(2-nitro-3-methylimidazol-4-yl)methoxy]phosphoryl})amine]: in data set [1], the “Primary tumor growth during the treatment period” value is reported as “significantly inhibited primary tumor growth”. Also, in the data set on H460 NSCLC cells, the “Days to 500 mm^3” value amounted to 19 days; the “Days to 1000 mm^3” value came to 30 days; the T/C was determined as 49.7%; the “TGD500, Days (vs. vehicle)” value amounted to 7 days. Besides, in the data set with H460 NSCLC cells, the “TGD1000, Days (vs. vehicle)” value was 9 days; the TGI stood at 50.3%; the “Tn (tumor volume on Day n)” value was determined as 598.34. In the data set with metastatic melanoma (setting [2]), the “Partial responses (RECIST)” value is on record as “Three of the eight subjects” and the “Stable disease (RECIST)” value was “three of eight subjects”. In the data set with metastatic melanoma (expansion at MTD, Days 1, 8, 15 of 28-day cycle, 8 patients assessed), this compound returned an RECIST partial responses of 37%. In the data set with metastatic melanoma (setting [3]), the “Ongoing stable disease after 2 months of therapy” value was found to be 38% and the Progressive disease is on record as 25%. In the data set with metastatic melanoma (nine patients treated), this compound showed a Mucosal adverse events of 4 patients and a Skin adverse events of 8 patients. Further, in the data set with metastatic melanoma (setting [4]), the “Decrease in SLD of target lesions” value was 53%; the “Reduction in area of cancer in lung and liver” value is “over 50%”. In the data set with H460 NSCLC, the “Days to 500 mm^3” value was found to be 26 days; the “Days to 1000 mm^3” value stood at 34 days; the T/C turned out to be 38.4%; the “TGD500, Days (vs. vehicle)” value amounted to 12 days. Besides, in the data set on H460 NSCLC, the “TGD1000, Days (vs. vehicle)” value turned out to be 10 days; the TGI worked out at 61.6%; the “Tn (tumor volume on Day n)” value came out at 507.13.
